Read-outs that look alike come from different tables or passages of the source.
Tested on: Serratia marcescens (ATCC 13880)
Experiment: Antimicrobial efficacy (stand-alone log reduction), S. marcescens
Format: cell-based
Conditions: for log reduction at 4 ppm / log reduction at 1 ppm / log reduction at 2 ppm / log reduction at 3 ppm / log reduction at 5 ppm / log reduction at 4 µg/mL: Serratia marcescens; for log reduction at 4 µg/mL: 4.0 ppm alexidine in ReNu MPS; for Log Reduction S. marcescens: PAPB 0.0
Protocol: This Example illustrates the microbiocidal efficacy of solutions according to the present invention. The antimicrobial efficacy of each of various compositions for the chemical disinfection of contact lenses was evaluated. Microbial challenge inoculums were prepared using Pseudomonas aeruginosa (ATCC 9027), Staphylococcus aureus (ATCC 6538), Serratia marcescens (ATCC 13880), Candida albicans (ATCC 10231), and Fusarium solani (ATCC 36031). The test organisms were cultured on appropriate agar and the cultures were harvested using sterile DPBST (Dulbecco's Phosphate Buffered Saline plus 0.05% w/v polysorbate 80) or a suitable diluent and transferred to a suitable vessel. Spore suspensions were filtered through sterile glass wool to remove hyphal fragments. Serratia marcescens, as appropriate, was filtered (eg., through a 1.2 μ filter) to clarify the suspension. After harvesting, the suspension was centrifuged at no more than 5000× g for a maximum of 30 minutes at 20-25° C. The supernatant was poured off and resuspended in DPBST or other suitable diluent. The suspension was centrifuged a second time, and resuspended in DPBST or other suitable diluent. All challenge bacterial and fungal cell suspensions were adjusted with DPBST or other suitable diluent to 1×10^7 -10^8 cfu/mL. The appropriate cell concentration may be estimated by measuring the turbidity of the suspension, for example using a spectrophotometer at a preselected wavelength, for example 490 nm. One tube was prepared containing a minimum of 10 mL of test solution per challenge organism. Each tube of the solution to be tested was inoculated with a suspension of the test organism sufficient to provide a final count of 1.0×10^5 -10^6 cfu/mL, the volume of the inoculum not exceeding 1% of the sample volume. Dispersion of the inoculum was ensured by vortexing the sample for at least 15 seconds. The inoculated product was stored at 10-25° C. Aliquots in the amount of 1.0 mL were taken of the inoculated product for determination of viable counts after certain time periods of disinfection. The time points for the bacteria were 25, 50, 75, and 100% of the minimum disinfection time. Yeast and mold were tested at an additional timepoint of at least 400% of the minimum disinfection time. The suspension was mixed well by vortexing vigorously for at least 5 second. The 1.0 mL aliquots removed at the specified time intervals were subjected to a suitable series of decimal dilutions in validated neutralizing media. The suspensions were mixed vigorously and incubated for a suitable period of time to allow for neutralization of the microbial agent. The viable count of organisms was determined in appropriate dilutions by preparation of triplicate plates of trypticase soy (TSA) agar for bacteria and Sabouraud dextrose agar (SDA) for mold and yeast. The bacterial recovery plates were incubated at 30-35° C. for 2-4 days. The yeast was incubated at 20-30° C. for 2-4 days and mold recovery plates at 20-25° C. for 3-7 days. The average number of colony forming units was determined on countable plates. Countable plates refer to 30-300 cfu/plates for bacteria and yeast, and 8 to 80 cfu/plate for mold except when colonies are observed only for the 10^0 or 10^-1 dilution plates. The microbial reduction was then calculated at the specified time points. […] Following inoculation in a validated neutralizing broth and incubation for an appropriate period of time, the inoculum control must be between 1.0×10^5 -1.0×10^6 cfu/mL
The solutions were evaluated based on the performance requirement referred to as the "Stand-Alone Procedure for Disinfecting Products" (hereafter the "stand-alone test") and is based on the Disinfection Efficacy Testing for contact lens care products under the Draft Premarket Notification (510(k)) Guidance Document For Contact Lens Care Products dated Apr. 1, 1996, prepared by the U.S. Food and Drug Administration, Division of Ophthalmic Devices. […]

CCCCC(CC)CNC(=N)NC(=N)NCCCCCCNC(=N)NC(=N)NCC(CC)CCCC.Cl.Cl (stereo not shown) [Alexidine.2HCl, 1,1 '-hexamethylenebis(5-(2-ethylhexyl)-biguanide) dihydrochloride]
log reduction at 4 ppm (ATCC13880, 2.5 min, 4.0 ppm, aged 18 months, Exp. 1, 2.5 min, read-out: Log Reduction): 0.5 | log reduction at 4 ppm (ATCC13880, 2.5 min, 4.0 ppm, aged 18 months, Exp. 2, 2.5 min, read-out: Log Reduction): 0.8 | log reduction at 4 ppm (ATCC13880, 2.5 min, 4.0 ppm, aged 18 months, Exp. 3, 2.5 min, read-out: Log Reduction): 0.8 | log reduction at 4 ppm (ATCC13880, 5 min): 0.6 | log reduction at 1 ppm (ATCC13880, 5 min, 1.0 ppm, read-out: Log Reduction at 5 Minutes): 0.5 | log reduction at 2 ppm (ATCC13880, 5 min, 2.0 ppm, read-out: Log Reduction at 5 Minutes): 0.8 | log reduction at 3 ppm (ATCC13880, 5 min, 3.0 ppm, read-out: Log Reduction at 5 Minutes): 1.1 | log reduction at 4 ppm (ATCC13880, 5 min, 4.0 ppm, aged 18 months, Exp. 2, 5.0 min, read-out: Log Reduction): 2 | log reduction at 4 ppm (ATCC13880, 5 min, 4.0 ppm, aged 18 months, Exp. 3, 5.0 min, read-out: Log Reduction): 2 | log reduction at 4 ppm (ATCC13880, 5 min, 4.0 ppm, read-out: Log Reduction at 5 Minutes): 2 | log reduction at 5 ppm (ATCC13880, 5 min, 5.0 ppm, read-out: Log Reduction at 5 Minutes): 2.9 | log reduction at 4 ppm (ATCC13880, 0.125 h, 4.0 ppm, aged 18 months, Exp. 1, 7.5 min, read-out: Log Reduction): 0.9 | log reduction at 4 ppm (ATCC13880, 0.125 h, 4.0 ppm, aged 18 months, Exp. 2, 7.5 min, read-out: Log Reduction): 2.8 | log reduction at 4 ppm (ATCC13880, 0.125 h, 4.0 ppm, aged 18 months, Exp. 3, 7.5 min, read-out: Log Reduction): 2.2 | log reduction at 4 ppm (ATCC13880, 10 min): 1.2 | log reduction at 1 ppm (ATCC13880, 10 min, 1.0 ppm, read-out: Log Reduction at 10 Minutes): 0.7 | log reduction at 2 ppm (ATCC13880, 10 min, 2.0 ppm, read-out: Log Reduction at 10 Minutes): 1.8 | log reduction at 3 ppm (ATCC13880, 10 min, 3.0 ppm, read-out: Log Reduction at 10 Minutes): 2.6 | log reduction at 4 ppm (ATCC13880, 10 min, 4.0 ppm, aged 18 months, Exp. 2, 10.0 min, read-out: Log Reduction): 2.8 | log reduction at 4 ppm (ATCC13880, 10 min, 4.0 ppm, aged 18 months, Exp. 3, 10.0 min, read-out: Log Reduction): 2.2 | log reduction at 4 ppm (ATCC13880, 10 min, 4.0 ppm, read-out: Log Reduction at 10 Minutes): > 4.8 | log reduction at 5 ppm (ATCC13880, 10 min, 5.0 ppm, read-out: Log Reduction at 10 Minutes): > 4.8 | log reduction at 4 ppm (ATCC13880, 0.25 h): 3 | log reduction at 4 ppm (ATCC13880, 0.25 h, 4.0 ppm, Ex. 6, aged 19 months at 25 °C, 15 min, read-out: Log Reduction): 3.2 | log reduction at 4 ppm (ATCC13880, 0.25 h, 4.0 ppm, Ex. 8, different batch aged 19 months at 25 °C, 15 min, read-out: Log Reduction): 2.5 | log reduction at 4 ppm (ATCC13880, 0.5 h, 4.0 ppm, Ex. 6, aged 19 months at 25 °C, 30 min, read-out: Log Reduction): > 4.7 | log reduction at 4 ppm (ATCC13880, 0.5 h, 4.0 ppm, Ex. 7, different lot aged 18 months, 30 min, read-out: Log Reduction): 4.7 | log reduction at 4 ppm (ATCC13880, 0.5 h, 4.0 ppm, Ex. 8, different batch aged 19 months at 25 °C, 30 min, read-out: Log Reduction): 4.6 | log reduction at 4 ppm (ATCC13880, 0.75 h, 4.0 ppm, Ex. 6, aged 19 months at 25 °C, 45 min, read-out: Log Reduction): > 4.7 | log reduction at 4 ppm (ATCC13880, 0.75 h, 4.0 ppm, Ex. 7, different lot aged 18 months, 45 min, read-out: Log Reduction): > 4.8 | log reduction at 4 ppm (ATCC13880, 0.75 h, 4.0 ppm, Ex. 8, different batch aged 19 months at 25 °C, 45 min, read-out: Log Reduction): > 4.7 | log reduction at 1 ppm (ATCC13880, 1 h, 1 ppm, 1 hr, read-out: Log Reduction): 3.5 | log reduction at 2 ppm (ATCC13880, 1 h, 2 ppm, 1 hr, read-out: Log Reduction): > 4.8 | log reduction at 3 ppm (ATCC13880, 1 h, 3 ppm, 1 hr, read-out: Log Reduction): > 4.8 | log reduction at 4 µg/mL (ATCC13880, 1 h, 1 hr): 3.7 | log reduction at 4 ppm (ATCC13880, 1 h, 4 ppm, 1 hr, read-out: Log Reduction): > 4.8 | log reduction at 4 ppm (ATCC13880, 1 h, 4.0 ppm, Ex. 6, aged 19 months at 25 °C, 60 min, read-out: Log Reduction): > 4.7 | log reduction at 4 ppm (ATCC13880, 1 h, 4.0 ppm, Ex. 7, different lot aged 18 months, 60 min, read-out: Log Reduction): > 4.8 | log reduction at 4 ppm (ATCC13880, 1 h, 4.0 ppm, Ex. 8, different batch aged 19 months at 25 °C, 60 min, read-out: Log Reduction): > 4.7 | log reduction at 5 ppm (ATCC13880, 1 h, 5 ppm, 1 hr, read-out: Log Reduction): > 4.8 | log reduction at 4 µg/mL (ATCC13880, 2 h, 2 hr): > 4.7 | log reduction at 4 µg/mL (ATCC13880, 3 h, 3 hr): > 4.7 | log reduction at 4 µg/mL (ATCC13880, 4 h, 4 hr): > 4.7 | Log Reduction S. marcescens (alexidine 0.5 ppm, 15 min): 0.6 log | Log Reduction S. marcescens (alexidine 0.5 ppm, 30 min): 1.6 log | Log Reduction S. marcescens (alexidine 0.5 ppm, 60 min): 2.5 log | Log Reduction S. marcescens (alexidine 2.6 ppm, 15 min): 2.2 log | Log Reduction S. marcescens (alexidine 2.6 ppm, 30 min): > 4.3 log | Log Reduction S. marcescens (alexidine 2.6 ppm, 60 min): > 4.3 log

— patent publication US5965088A, “Method for providing rapid disinfection of contact lenses” (priority 1997, dated 1999)
